Where a name gives a salt, the structure may show the parent alone.
How the values were obtained:
[1] = test system: L-687,414-induced hyperlocomotion; assay: Reversal of L-687,414-induced hyperlocomotion (Digiscan locomotor activity); format: in vivo, mouse; conditions: for ID50 po: dose producing 50% inhibition of L-687,414-induced hyperlocomotion, p.o. 15 min before s.c. 50 mg/kg L-687,414, doses 1-3-10 (Expl. 2: 3-10-30) mg/kg; for inhibition in vivo at 30 mg/kg: Mus musculus, 0.5 h; for inhibition in vivo at 30 mg/kg / Inhibition, ip: dose ip 30 mg/kg at the same time as s.c. 50 mg/kg L-687,414, horizontal activity over 30 min
Description: The authors described that hyperlocomotion induced by L-687,414 was inhibited by a series of known antipsychotic drugs. […] These findings predict antipsychotic activity for the present compounds, making them useful for the treatment of positive (psychosis) and negative symptoms of schizophrenia, substance abuse, alcohol and drug addiction, obsessive-compulsive disorders, cognitive impairment, bipolar disorders, mood disorders, major depression, resistant depression, anxiety disorders, Alzheimer's disease, autism, Parkinson's disease, chronic pain, borderline personality disorder, sleep disturbances, chronic fatigue syndrome, stiffness, antiinflammatory effects in arthritis and balance problems.
The described compounds of formula I reduce L-687,414-induced hyperlocomotion. This was assessed by using a computerized Digiscan 16 Animal Activity Monitoring System (Omnitech Electronics, Columbus, Ohio) to quantify locomotor activity. Animals were kept under a 12 h light/dark cycle and experiments were performed during the light period. Each activity monitoring chamber consisted of a Plexiglas box (41×41×28 cm; W×L×H) with sawdust bedding on the floor surrounded by invisible horizontal and vertical infrared sensor beams. The test boxes were divided by a Plexiglas cross providing each mouse with 20×20 cm of moving space. Cages were connected to a Digiscan Analyzer linked to a computer that constantly collected the beam status information. Records of photocell beam interruptions for individual animals were taken every 5 min over the duration of the experimental session and the sum of the first 6 periods was used as the final parameter. Compounds were administered either p.o. 15 min before a s.c. injection of 50 mg/kg of L-687,414, or i.p. at the same time as a s.c. injection of 50 mg/kg of L-687,414. Mice were then transferred from their home cage to the recording chambers for a 15-min habituation phase allowing free exploration of the new environment. Horizontal activity was then recorded for a 30-min time period. The % inhibition of L-687,414-induced hyperlocomotion was calculated according to the equation: ((Veh+L-687,414 horizontal activity−drug+L-687,414 horizontal activity)/Veh+L−687,414 horizontal activity)×100
ID50 values, defined as doses of each compound producing 50% inhibition of L-687,414-induced hyperlocomotion, were calculated by linear regression analysis of a dose-response data using an Excel-based computer-fitting program.
As data was not presupposed to be normally distributed, groups treated with test compounds were statistically compared with the control (vehicle-treated) group using one-tailed Mann Whitney U tests. In statistics, the Mann-Whitney U test (also called the Mann-Whitney-Wilcoxon (MWW) or Wilcoxon rank-sum test) is a non-parametric statistical hypothesis test for assessing whether one of two samples of independent observations tends to have larger values than the other. It is one of the most well-known non-parametric significance tests. […] P values given in table 1 are one-tailed since only decreases in locomotion were expected and tested for (Mann, H. B., Whitney, D. R. (1947), “On a Test of Whether one of Two Random Variables is Stochastically Larger than the Other”, Annals of Mathematical Statistics, 18 (1), 50-60).

[2] = test system: behaviors of compound-treated mice; assay: SmartCube behavioral signature and similarity analysis to atypical antipsychotics; format: in vivo, mouse; conditions: 25 mg/kg i.p.; for SmartCube signature (class similarity): FIG. 1; for Similarity analysis: discrimination rate vs Clozapine / Similarity analysis: discrimination rate vs Olanzapine / Similarity analysis: discrimination rate vs Risperidone: rate of 0.70 or lower = similar, 0.5 = zero distinguishability
Description: In addition to the reversal of L-687,414 induced hyperlocomotion experiment as described above, some compounds of the present invention have been tested in SmartCube®, an automated system in which the behaviors of compound-treated mice in response to multiple challenges are captured by digital video and analyzed with computer algorithms (Roberds et al., Frontiers in Neuroscience, 2011, Vol. 5, Art. 103, 1-4). In this way, the neuro-pharmacological effects of a test compound can be predicted by similarity to major classes of compounds, such as antipsychotics, anxiolytics and antidepressants.
As mentioned above, some compounds have been tested in SmartCube®, an analytical system developed by PsychoGenics Inc.
SmartCube® was used to compare the behavioral signature of a test compound to a database of behavioral signatures obtained from a large set of clinically approved reference drugs, grouped per indications. In this way, the neuro-pharmacological effects of a test compound can be predicted by similarity to major classes of compounds, such as antipsychotics, anxiolytics and antidepressants. This approach is ideally suited to screen collections of existing drugs or drug candidates with previously unknown neuropharmacology, which could expedite the development of new and unexpected treatments for psychiatric disorders.
Some compounds of the present invention were injected i.p. at different doses 15 minutes before the test. At least 8 mice were used in each treatment group. Digital videos of the subjects were processed with computer vision algorithms to extract over 2000 dependent measures including frequency and duration of many different behavioral states. The results of the classifications are presented as bar charts for each compound and dose (mg/kg), the Y-axis indicates the relative probability that the test compound will show efficacy in the specific CNS indication.
Compounds of the present invention show similar signatures to those of atypical antipsychotics. An independent analysis was performed on the unclassified data to determine the similarity of the example compounds to active doses of known atypical antipsychotics. For this analysis, we use discrimination rate as the measure of separability between the two drugs, i.e. one drug's “distinguishability” from another. A rate equal to 50% (or 0.5) corresponds to zero distinguishability. […] In most cases, the example compounds show a similarity to risperidone, clozapine and olanzapine with a discrimination rate of ≤0.70.

In the case of `Cc1cc(-n2cnc(-c3ccc4c(c3)N(C)C(=O)C4(C)C)c2)ccn1` [Example 62, 1,3,3-Trimethyl-6-(1-(2-methylpyridin-4-yl)-1H-imidazol-4-yl)indolin-2-one], the ID50 po [1] was 8.8 mg/kg, the “SmartCube signature (class similarity)” value [2] was “similarity to atypical antipsychotics” and the “Similarity analysis: discrimination rate vs Clozapine” value (from here on “Similarity analysis … vs Clozapine”) [2] was 0.59. The “Similarity analysis: discrimination rate vs Olanzapine” value (“Similarity analysis … vs Olanzapine” for short) [2] was 0.62 and the “Similarity analysis: discrimination rate vs Risperidone” value (from here on “Similarity analysis … vs Risperidone”) [2] was 0.58.

`Cc1cc(-c2ncc(-c3ccc4c(c3)NC(=O)C4(C)C)o2)ccn1` [Example 35, 3,3-Dimethyl-6-(2-(2-methylpyridin-4-yl)oxazol-5-yl)indolin-2-one] was tested, and the ID50 po [1] was 5.82 mg/kg, the “SmartCube signature (class similarity)” value [2] was “similarity to atypical antipsychotics” and the “Similarity analysis … vs Clozapine” value [2] was 0.69. The “Similarity analysis … vs Olanzapine” value [2] was 0.75 and the “Similarity analysis … vs Risperidone” value [2] was 0.60.

In the case of `CC1(C)C(=O)Nc2cc(-n3cnc(-c4ccncc4)c3)ccc21` [Example 47, 3,3-Dimethyl-6-(4-(pyridin-4-yl)-1H-imidazol-1-yl)indolin-2-one], the “SmartCube signature (class similarity)” value [2] was “similarity to atypical antipsychotics”, the “Similarity analysis … vs Clozapine” value [2] was 0.70 and the “Similarity analysis … vs Olanzapine” value [2] was 0.68. The “Similarity analysis … vs Risperidone” value [2] was 0.64.

`Cc1cc(-c2cnc(-c3ccc4c(c3)N(C3CC3)C(=O)C4(C)C)o2)ccn1` [Example 19, 1-Cyclopropyl-3,3-dimethyl-6-(5-(2-methylpyridin-4-yl)oxazol-2-yl)indolin-2-one] was tested, and the inhibition in vivo at 30 mg/kg [1] was 55.9%.

`Cc1cnccc1-n1cnc(-c2ccc3c(c2)N(c2cn(C)cn2)C(=O)C3(C)C)c1` [Example 114, 3,3-Dimethyl-1-(1-methylimidazol-4-yl)-6-[1-(3-methyl-4-pyridyl)imidazol-4-yl]indolin-2-one] gave an inhibition in vivo at 30 mg/kg [1] of 64.9%.

Work on `CN1C(=O)C(C)(C)c2ccc(-c3coc(-c4cccnc4)n3)cc21` [Example 44, 1,3,3-Trimethyl-6-(2-(pyridin-3-yl)oxazol-4-yl)indolin-2-one] yielded an inhibition in vivo at 30 mg/kg [1] of 52.1%.

`CC1(C)C(=O)Nc2cc(-c3cn(-c4cccnc4)cn3)ccc21` [Example 93, 3,3-Dimethyl-6-(1-(pyridin-3-yl)-1H-imidazol-4-yl)indolin-2-one] was tested, and the “SmartCube signature (class similarity)” value [2] was “similarity to atypical antipsychotics”, the “Similarity analysis … vs Clozapine” value [2] was 0.63 and the “Similarity analysis … vs Olanzapine” value [2] was 0.68. The “Similarity analysis … vs Risperidone” value [2] was 0.60.

For `Cc1ccc(-c2cnn(-c3ccc4c(c3)N(C3CC3)C(=O)C4(C)C)c2)cn1` [Example 69, 1-Cyclopropyl-3,3-dimethyl-6-(4-(6-methylpyridin-3-yl)-1H-pyrazol-1-yl)indolin-2-one], the inhibition in vivo at 30 mg/kg [1] was 53.3%.

Compound `CC1(C)C(=O)N(C2COC2)c2cc(-c3nnc(-c4ccncc4)o3)ccc21` [Example 11, 3,3-Dimethyl-1-(oxetan-3-yl)-6-(5-(pyridin-4-yl)-1,3,4-oxadiazol-2-yl)indolin-2-one] has an inhibition in vivo at 30 mg/kg [1] of 80.9%.

With `Cc1cnc(-n2cnc(-c3ccc4c(c3)N(C3CC3)C(=O)C4(C)C)c2)nc1` [Example 118, 1-Cyclopropyl-3,3-dimethyl-6-(1-(5-methylpyrimidin-2-yl)-1H-imidazol-4-yl)indolin-2-one] the inhibition in vivo at 30 mg/kg [1] was 50.3%.

For `Cc1ncc(N2C(=O)C(C)(C)c3ccc(-c4cn(-c5ccncc5C)cn4)cc32)cn1` [Example 116, 3,3-Dimethyl-6-[1-(3-methyl-4-pyridyl)imidazol-4-yl]-1-(2-methylpyrimidin-5-yl)indolin-2-one], the inhibition in vivo at 30 mg/kg [1] was 74.3%.

Work on `Cc1cc(-c2nnc(-c3ccc4c(c3)N(C3COC3)C(=O)C4(C)C)o2)ccn1` [Example 49, 3,3-Dimethyl-6-(5-(2-methylpyridin-4-yl)-1,3,4-oxadiazol-2-yl)-1-(oxetan-3-yl)indolin-2-one] yielded an ID50 po [1] of 5.02 mg/kg.

For `Cc1cc(N2C(=O)C(C)(C)c3ccc(-c4cn(-c5ccncc5C)cn4)cc32)ccn1` [Example 106, 3,3-Dimethyl-1-(2-methyl-4-pyridyl)-6-[1-(3-methyl-4-pyridyl)imidazol-4-yl]indolin-2-one], the inhibition in vivo at 30 mg/kg [1] was 68.4%.

Compound `Cc1cc(-c2ncc(-c3ccc4c(c3)N(C)C(=O)C4(C)C)o2)ccn1` [Example 22, 1,3,3-Trimethyl-6-(2-(2-methylpyridin-4-yl)oxazol-5-yl)indolin-2-one] has an inhibition in vivo at 30 mg/kg [1] of 55.9%.

`Cc1cnccc1-n1cnc(-c2ccc3c(c2)N(C2CC2)C(=O)C3(C)C)c1` [Example 89, 1-Cyclopropyl-3,3-dimethyl-6-(1-(3-methylpyridin-4-yl)-1H-imidazol-4-yl)indolin-2-one] was tested, and the inhibition in vivo at 30 mg/kg [1] was 58.5%.

In the case of “6-[1-(3-Fluoro-4-pyridyl)imidazol-4-yl]-3,3-dimethyl-1-(2-methylpyrimidin-5-yl)indolin-2-one [Example 110]”, the “Inhibition, ip” value [1] was 85.4%.

`CC1(C)C(=O)N(C2CC2)c2cc(-c3cnc(-c4ccncc4)o3)ccc21` [Example 10, 1-Cyclopropyl-3,3-dimethyl-6-(2-(pyridin-4-yl)oxazol-5-yl)indolin-2-one] was tested, and the inhibition in vivo at 30 mg/kg [1] was 78.8%.

`Cc1nc(-c2ccc3c(c2)N(C)C(=O)C3(C)C)cn1-c1ccncc1` [Example 77, 1,3,3-Trimethyl-6-(2-methyl-1-(pyridin-4-yl)-1H-imidazol-4-yl)indolin-2-one] showed an inhibition in vivo at 30 mg/kg [1] of 89.4%.

For `Cc1cc(-n2cnc(-c3ccc4c(c3)NC(=O)C4(C)C)c2)c(F)cn1` [Example 132, 6-[1-(5-Fluoro-2-methyl-4-pyridyl)imidazol-4-yl]-3,3-dimethyl-indolin-2-one trifluoroacetate], the inhibition in vivo at 30 mg/kg [1] was 71.1%.

`Cc1ccc(N2C(=O)C(C)(C)c3ccc(-c4cn(-c5ccncc5F)cn4)cc32)cn1` [Example 102, 6-[1-(3-Fluoro-4-pyridyl)imidazol-4-yl]-3,3-dimethyl-1-(6-methyl-3-pyridyl)indolin-2-one] gave an inhibition in vivo at 30 mg/kg [1] of 65.6%.

“1,3,3-Trimethyl-6-(3-pyridin-4-yl-isoxazol-5-yl)-1,3-dihydro-indol-2-one [Example 42]” was tested, and the “Inhibition, ip” value [1] was 58.4%.

“1-Cyclopropyl-3,3-dimethyl-6-(2-(2-methylpyridin-4-yl)oxazol-5-yl)indolin-2-one [Example 12]” was tested, and the “Inhibition, ip” value [1] was 49.1%.

Compound `CN1C(=O)C(C)(C)c2ccc(-c3ncc(-c4ccccc4)[nH]3)cc21` [Example 2, 1,3,3-Trimethyl-6-(5-phenyl-1H-imidazol-2-yl)indolin-2-one] has an ID50 po [1] of 10.71 mg/kg.

Reference: US10385050B2, “Indolin-2-one and 1,3-dihydro-pyrrolo[3,2-c]pyridin-2-one derivatives” (Hoffmann-La Roche Inc., priority 2014, dated 2019)
